The text below walks through data of US10927139B2, “Chemically cleavable group” (Tagworks Pharmaceuticals B.V., priority 2012, dated 2021).

Data set [1] in a line: Testing the stability of a TCO compound under chemical conditions (HPLC-MS/PDA, GC-MS). In kind it is physicochemical. Particulars: for 1 h. The procedure: (§1) The feasibility to use the TCO group as a protective group in chemistry was studied by testing the stability of a range of TCO derivatives as model compounds under various conditions, and following the deprotection upon reaction with a tetrazine derivative under these conditions.
Typical Example for Testing the Stability of a TCO Compound
The TCO stock solution (10 μL 25 mM; 2.5*10^−7 mol) was added to a solution of the specific condition (100 μL). The mixture was stirred at the specific condition for a certain amount of time, and then the fate of the TCO compound was monitored by HPLC-MS/PDA analysis and/or GC-MS analysis, and an estimation of its stability was made.
(§2) A) in acetonitrile with 5 equivalents of pyridine per TCO at 20° C.
(§3) B) in acetonitrile with 5 equivalents of DIPEA per TCO at 20° C.
(§4) C) in acetonitrile with 5 equivalents of piperidine per TCO at 20° C.
(§5) D) in acetonitrile with 5 equivalents of n-butylamine per TCO at 20° C.
(§6) E) in acetonitrile with 5 equivalents of 2-mercaptoethanol per TCO at 20° C.
(§7) F) in tetrahydrofuran with 5 equivalents of triphenylphosphine per TCO at 20° C.
(§8) G) in acetonitrile with 5 equivalents of DCC per TCO at 20° C.
(§9) H) in acetonitrile with 5 equivalents of PyBOP per TCO at 20° C.
(§10) I) in acetonitrile with 1 v % of formic acid at 20° C.
(§11) J) in chloroform at 20° C.
(§12) K) in chloroform with 1 v % of formic acid at 20° C.
(§13) L) in chloroform with 1 v % of trifluoroacetic acid at 20° C.
(§14) M) in chloroform with 10 v % of trifluoroacetic acid at 20° C.
(§15) N) in chloroform with 33 v % of trifluoroacetic acid at 20° C.
(§16) Z) in 25% acetonitrile in water at 20° C.

Data set [2] can be described thus: Testing the feasibility of the deprotection of TCO compounds upon reaction with tetrazine. Particulars: for 1 h. The procedure: as §1
Typical Example for Testing the Feasibility of the Deprotection
The TCO stock solution (10 μL 25 mM in acetonitrile; 2.5*10^−7 mol) was added to a solution of the specific condition (100 μL). A solution of 3,6-dimethyl-1,2,4,5-tetrazine (8, 20 μL 25 mM in acetonitrile; 5.0*10^−7 mol) was added, and the mixture was stirred at the specific condition for a certain amount of time. The reaction was monitored by HPLC-MS/PDA analysis and/or GC-MS analysis, and the percentage of deprotection was estimated.
as §2, §3, §4, §5, §6, §7, §8, §9, §10, §11, §12, §13, §14, §15, §16

Setting [3] is: Z) in 25% acetonitrile in water at 20° C.
The mark [4] stands for this setting: tetrazine 8; J) in chloroform at 20° C.
Setting [5] is: tetrazine 8; Z) in 25% acetonitrile in water at 20° C.
[6] abbreviates: A) in acetonitrile with 5 equivalents of pyridine per TCO at 20° C.
The mark [7] stands for this setting: B) in acetonitrile with 5 equivalents of DIPEA per TCO at 20° C.
Where [8] appears, read: G) in acetonitrile with 5 equivalents of DCC per TCO at 20° C.
Setting [9] is: I) in acetonitrile with 1 v % of formic acid at 20° C.
Setting [10] is: tetrazine 8; A) in acetonitrile with 5 equivalents of pyridine per TCO at 20° C.
Setting [11] is: tetrazine 8; B) in acetonitrile with 5 equivalents of DIPEA per TCO at 20° C.
The mark [12] stands for this setting: tetrazine 8; G) in acetonitrile with 5 equivalents of DCC per TCO at 20° C.
[13] abbreviates: tetrazine 8; I) in acetonitrile with 1 v % of formic acid at 20° C.

SMILES strings stand for the structures.

As to `O=C(Cc1ccccc1)C(C(=O)OC1/C=C/CCCCC1)c1ccccc1` (centres unmarked), the “Stability of TCO” value in data set [1] (J) in chloroform at 20° C.) and in data set [1] (setting [3]) was “stable stable” throughout. For the same compound, the “Deprotection (%)” value in data set [2] (setting [4]) is 95%; in data set [2] (setting [5]) it was 70%.
With `O=C(OC1/C=C/CCCCC1)c1ccc([N+](=O)[O-])cc1` (centres unmarked) [drawing 116], the “Stability of TCO” value in data set [1] (setting [6]), in data set [1] (setting [8]), in data set [1] (setting [9]) and in data set [1] (setting [3]) was “stable” throughout. In addition, the “Stability of TCO: hydrolysis” value in data set [1] (setting [7]) was around 2%. The “Deprotection (%)” value is 68% in data set [2] (setting [10]); 83% in data set [2] (setting [11]); 89% in data set [2] (setting [12]); 95% in data set [2] (setting [13]); 80% in data set [2] (setting [5]).
As for `C1=C/C(OCc2ccccc2)CCCCC/1` (centres unmarked), the “Stability of TCO” value in data set [1] (J) in chloroform at 20° C.) and in data set [1] (setting [3]) was “stable stable” in each case. For the same compound, the “Deprotection (%)” value in data set [2] (setting [4]) is on record as 70%; in data set [2] (setting [5]), 54%.
On to `O=C(OC1/C=C/CCCCC1)c1ccc([N+](=O)[O-])cc1` (centres unmarked) [drawing 118], for which the “Stability of TCO” value in data set [1] (setting [3]) is on record as “stable”. The “Deprotection (%)” value in data set [2] (setting [5]) was determined as 66%.
As for `O=C(NCc1cccc2ccccc12)OC1/C=C/CCCCC1` (centres unmarked), the “Stability of TCO” value in data set [1] (setting [6]), in data set [1] (setting [7]), in data set [1] (C) in acetonitrile with 5 equivalents of piperidine per TCO at 20° C.), in data set [1] (D) in acetonitrile with 5 equivalents of n-butylamine per TCO at 20° C.), in data set [1] (E) in acetonitrile with 5 equivalents of 2-mercaptoethanol per TCO at 20° C.) and in data set [1] (F) in tetrahydrofuran with 5 equivalents of triphenylphosphine per TCO at 20° C.) was “stable stable stable stable stable stable stable stable stable stable stable stable stable stable” in each case. Further, the “Stability of TCO” value in data set [1] (setting [8]), in data set [1] (H) in acetonitrile with 5 equivalents of PyBOP per TCO at 20° C.), in data set [1] (setting [9]), in data set [1] (J) in chloroform at 20° C.), in data set [1] (K) in chloroform with 1 v % of formic acid at 20° C.) and in data set [1] (L) in chloroform with 1 v % of trifluoroacetic acid at 20° C.) was “stable stable stable stable stable stable stable stable stable stable stable stable stable stable” in each case. Moreover, the “Stability of TCO” value in data set [1] (M) in chloroform with 10 v % of trifluoroacetic acid at 20° C.) and in data set [1] (setting [3]) was “stable stable stable stable stable stable stable stable stable stable stable stable stable stable” throughout. Moreover, the “Deprotection (%)” value in data set [2] (setting [10]) was 87%; in data set [2] (setting [11]), 58%; in data set [2] (tetrazine 8; C) in acetonitrile with 5 equivalents of piperidine per TCO at 20° C.), 48%; in data set [2] (tetrazine 8; D) in acetonitrile with 5 equivalents of n-butylamine per TCO at 20° C.), 47%; in data set [2] (tetrazine 8; E) in acetonitrile with 5 equivalents of 2-mercaptoethanol per TCO at 20° C.), 67%; in data set [2] (tetrazine 8; F) in tetrahydrofuran with 5 equivalents of triphenylphosphine per TCO at 20° C.), 75%. Further, the “Deprotection (%)” value in data set [2] (setting [12]) turned out to be 74%; in data set [2] (tetrazine 8; H) in acetonitrile with 5 equivalents of PyBOP per TCO at 20° C.), 74%; in data set [2] (setting [13]) it was 93%; in data set [2] (setting [4]), 73%; in data set [2] (tetrazine 8; K) in chloroform with 1 v % of formic acid at 20° C.), 98%; in data set [2] (tetrazine 8; L) in chloroform with 1 v % of trifluoroacetic acid at 20° C.), 99%. Further, the results for the “Deprotection (%)” value in data set [2] (tetrazine 8; M) in chloroform with 10 v % of trifluoroacetic acid at 20° C.) and in data set [2] (setting [5]) were 99% and 85%, respectively.
`C1=C/C(Oc2ccccc2)CCCCC/1` (centres unmarked) [drawing 120]: the “Stability of TCO” value in data set [1] (setting [6]), in data set [1] (setting [7]), in data set [1] (setting [8]), in data set [1] (setting [9]) and in data set [1] (setting [3]) was “stable stable stable stable stable” each time. Besides, the “Deprotection (%)” value in data set [2] (setting [10]) is 42%; in data set [2] (setting [11]), 92%; in data set [2] (setting [12]), 80%; in data set [2] (setting [13]) it was 92%; in data set [2] (setting [5]), 87%.
For the compound `O=C(Oc1ccc([N+](=O)[O-])cc1)OC1/C=C/CCCCC1` (centres unmarked), the “Stability of TCO” value in data set [1] (setting [6]), in data set [1] (setting [8]), in data set [1] (setting [9]) and in data set [1] (setting [3]) was “stable” each time. Besides, the “Stability of TCO: hydrolysis” value in data set [1] (setting [7]) was determined as 19%. Moreover, the “Deprotection (%)” value was 64% in data set [2] (setting [10]); 90% in data set [2] (setting [11]); 72% in data set [2] (setting [12]); 97% in data set [2] (setting [13]); 70% in data set [2] (setting [5]).
For the compound `Cc1cc(C)cc(NC(=O)OC2/C=C/CCCCC2)c1` (centres unmarked) [drawing 126], the “Stability of TCO” value in data set [1] (setting [6]), in data set [1] (setting [7]), in data set [1] (setting [8]) and in data set [1] (setting [9]) was “stable stable stable stable” each time. In addition, the “Deprotection (%)” value is recorded as 14% in data set [2] (setting [10]), 4% in data set [2] (setting [11]), 61% in data set [2] (setting [12]) and 97% in data set [2] (setting [13]).
With `Cc1cc(C)cc(NC(=O)OC2/C=C/CCCCC2)c1` (centres unmarked) [drawing 128], the “Stability of TCO” value in data set [1] (setting [6]), in data set [1] (setting [7]), in data set [1] (setting [8]) and in data set [1] (setting [9]) was “stable stable stable stable” throughout. Further, the “Deprotection (%)” value in data set [2] (setting [10]) amounted to 55%; in data set [2] (setting [11]) it was 39%; in data set [2] (setting [12]), 91%; in data set [2] (setting [13]), 97%.
In the case of `C1=C/C(Oc2ccccc2)CCCCC/1` (centres unmarked) [drawing 122], the “Stability of TCO” value in data set [1] (setting [3]) is recorded as “stable”. Also, the “Deprotection (%)” value in data set [2] (setting [5]) is 72%.
